In ChEMBL document CHEMBL3603829, “Metronidazole hydrazone conjugates: Design, synthesis, antiamoebic and molecular docking studies” (Bioorg Med Chem Lett, 2015) one finds IC50 and viability data, which are given here for 13 compounds.

In one data set the test system is Entamoeba histolytica. Briefly: Antiamoebic activity against trophozoite stage of Entamoeba histolytica HM-1:IMSS after 72 hrs by microdilution method. It is filed as functional, organism-based. For orientation: In broth dilution the organism is exposed to a series of concentrations in liquid medium.
The nature of data set [1]: Cytotoxicity against human HeLa cells assessed as cell viability at 208 nM after 72 hrs by MTT assay relative to control. It is filed as cell-based. The conditions noted are these: read-out: Activity. Background: Formazan colour is commonly taken as a measure of viable cells.
Data set [2] can be described thus: Cytotoxicity against human HeLa cells assessed as cell viability at 208 nM after 24 hrs by MTT assay relative to control. The conditions noted are these: read-out: Activity. Format: cell-based.
Data set [3] can be described thus: Cytotoxicity against human HeLa cells assessed as cell viability at 208 nM after 48 hrs by MTT assay relative to control. Format: cell-based. The settings on record: read-out: Activity.
Data set [4] can be described thus: Cytotoxicity against human HeLa cells assessed as cell viability at 435 nM after 24 hrs by MTT assay relative to control. The conditions noted are these: read-out: Activity. Format: cell-based.
A short description of data set [5]: Cytotoxicity against human HeLa cells assessed as cell viability at 435 nM after 72 hrs by MTT assay relative to control. It is filed as cell-based. The settings on record: read-out: Activity.
Data set [6] is described as follows: Cytotoxicity against human HeLa cells assessed as cell viability at 435 nM after 48 hrs by MTT assay relative to control. It is filed as cell-based. The conditions noted are these: read-out: Activity.
The nature of data set [7]: Cytotoxicity against human HeLa cells assessed as cell viability at 370 nM after 48 hrs by MTT assay relative to control. Format: cell-based. The conditions noted are these: read-out: Activity.
Data set [8] can be described thus: Cytotoxicity against human HeLa cells assessed as cell viability at 370 nM after 24 hrs by MTT assay relative to control. The conditions noted are these: read-out: Activity. It is filed as cell-based.
A short description of data set [9]: Cytotoxicity against human HeLa cells assessed as cell viability at 370 nM after 72 hrs by MTT assay relative to control. Format: cell-based. The settings on record: read-out: Activity.
The nature of data set [10]: Cytotoxicity against human HeLa cells assessed as cell viability at 360 nM after 48 hrs by MTT assay relative to control. It is filed as cell-based. The settings on record: read-out: Activity.
Data set [11] can be described thus: Cytotoxicity against human HeLa cells assessed as cell viability at 360 nM after 24 hrs by MTT assay relative to control. The conditions noted are these: read-out: Activity. It is filed as cell-based.
Data set [12] can be described thus: Cytotoxicity against human HeLa cells assessed as cell viability at 360 nM after 72 hrs by MTT assay relative to control. Format: cell-based. The settings on record: read-out: Activity.
Data set [13] in a line: Cytotoxicity against human HeLa cells assessed as cell viability at 490 nM after 72 hrs by MTT assay relative to control. It is filed as cell-based. The conditions noted are these: read-out: Activity.
A short description of data set [14]: Cytotoxicity against human HeLa cells assessed as cell viability at 490 nM after 48 hrs by MTT assay relative to control. It is filed as cell-based. The settings on record: read-out: Activity.
Data set [15] is described as follows: Cytotoxicity against human HeLa cells assessed as cell viability at 490 nM after 24 hrs by MTT assay relative to control. The conditions noted are these: read-out: Activity. It is filed as cell-based.
A short description of data set [16]: Cytotoxicity against human HeLa cells assessed as cell viability at 387 nM after 72 hrs by MTT assay relative to control. Format: cell-based. The settings on record: read-out: Activity.
A short description of data set [17]: Cytotoxicity against human HeLa cells assessed as cell viability at 387 nM after 48 hrs by MTT assay relative to control. It is filed as cell-based. The conditions noted are these: read-out: Activity.
Data set [18] can be described thus: Cytotoxicity against human HeLa cells assessed as cell viability at 387 nM after 24 hrs by MTT assay relative to control. It is filed as cell-based. The settings on record: read-out: Activity.

Each structure is given as a SMILES string.

For orientation: IC50 means the midpoint of a concentration-inhibition curve. High values mean a need for much substance, low ones inhibition by little substance. On to `Cc1ncc([N+](=O)[O-])n1CCOc1ccc(/C=N/NC(=O)c2ccc(Cl)cc2)cc1`, for which the IC50 in the data set with Entamoeba histolytica stood at 200 nM. Further, the viability at 72 h, 0.208 µM in data set [1] was determined as 65.9%. In addition, the viability at 24 h, 0.208 µM in data set [2] was determined as 85.9%. Besides, the viability at 48 h, 0.208 µM in data set [3] was 93.7%.
With `COc1cc(OC)cc(C(=O)N/N=C/c2ccc(OCCn3c([N+](=O)[O-])cnc3C)cc2)c1`, 4390 nM corresponded to half-maximal inhibition in the data set on Entamoeba histolytica (IC50).
The same measure, in the same setting: the same measure for `Cc1cc(C)cc(C(=O)N/N=C/c2ccc(OCCn3c([N+](=O)[O-])cnc3C)cc2)c1`: 5960 nM.
The same measure, in the same setting: the same measure for `COc1cc(C(=O)N/N=C/c2ccc(OCCn3c([N+](=O)[O-])cnc3C)cc2)cc(OC)c1OC`: 2600 nM.
For `Cc1ncc([N+](=O)[O-])n1CCOc1ccc(/C=N/NC(=O)c2ccc(N)cc2)cc1`, the viability at 24 h, 0.435 µM in data set [4] is 79.8%. Half-maximal inhibition with Entamoeba histolytica (IC50) required 430 nM. In addition, the viability at 72 h, 0.435 µM in [5] is 60.3%. The viability at 48 h, 0.435 µM in data set [6] stood at 80.1%.
In the case of `Cc1ncc([N+](=O)[O-])n1CCOc1ccc(/C=N/NC(=O)c2cc(O)cc(O)c2)cc1`, the viability at 48 h, 0.37 µM in data set [7] came to 92.1%. For the same compound, the IC50 with Entamoeba histolytica was found to be 370 nM. Besides, in data set [8], the viability at 24 h, 0.37 µM was 93.4%. Further, the viability at 72 h, 0.37 µM in data set [9] came out at 59.8%.
`Cc1ncc([N+](=O)[O-])n1CCOc1ccc(/C=N/NC(=O)c2ccccc2)cc1` had an IC50 in the data set on Entamoeba histolytica of 2020 nM. In other words, the single-digit micromolar range.
Compound `Cc1ncc([N+](=O)[O-])n1CCOc1ccc(C=O)cc1` registered a half-inhibitory concentration (IC50) in the data set on Entamoeba histolytica of 11500 nM.
`Cc1ncc([N+](=O)[O-])n1CCOc1ccc(/C=N/NC(=O)c2ccc([N+](=O)[O-])cc2)cc1`: in [10], the viability at 48 h, 0.36 µM amounted to 88.9%. Besides, in the data set with Entamoeba histolytica, 360 nM corresponded to half-maximal inhibition (IC50). In addition, the viability at 24 h, 0.36 µM in [11] turned out to be 78.5%. The viability at 72 h, 0.36 µM in data set [12] amounted to 68.3%.
On to `COc1ccc(C(=O)N/N=C/c2ccc(OCCn3c([N+](=O)[O-])cnc3C)cc2)cc1`, for which half-maximal inhibition with Entamoeba histolytica (IC50) required 7120 nM.
In the case of `Cc1ccc(C(=O)N/N=C/c2ccc(OCCn3c([N+](=O)[O-])cnc3C)cc2)cc1`, the viability at 72 h, 0.49 µM in data set [13] turned out to be 50.8%. In addition, the IC50 in the data set on Entamoeba histolytica turned out to be 490 nM. Moreover, the viability at 48 h, 0.49 µM in data set [14] was found to be 83.8%. Moreover, the viability at 24 h, 0.49 µM in data set [15] was 66.2%.
Consider `Cc1ncc([N+](=O)[O-])n1CCOc1ccc(/C=N/NC(=O)c2ccc(C(C)(C)C)cc2)cc1`, for which the half-maximal inhibitory concentration (IC50) in the data set with Entamoeba histolytica was determined as 1980 nM.
As for `Cc1ncc([N+](=O)[O-])n1CCOc1ccc(/C=N/NC(=O)c2ccc(O)cc2)cc1`, the viability at 72 h, 0.387 µM in data set [16] came out at 54.4%. Also, the viability at 48 h, 0.387 µM in data set [17] turned out to be 87.1%. The viability at 24 h, 0.387 µM in data set [18] worked out at 81.9%. This compound also had an IC50 with Entamoeba histolytica of 380 nM.
